The source made the active and inactive calls. No cut-off for these calls is given here.
Assays:
[1] = target: T1, von Hippel-Lindau disease tumor suppressor/Androgen receptor (Homo sapiens) (UniProt P10275+P40337); assay: PROTAC activity at VHL/HiBit tagged AR in human LNCaP cells assessed as degradation of AR preincubated with MLN4924 for 3 hrs followed by compound addition and measured after 18 hrs by Nano-Glo HiBiT assay; type: cell-based
[2] = target: T1, von Hippel-Lindau disease tumor suppressor/Androgen receptor (Homo sapiens); assay: PROTAC activity at VHL/HiBit tagged AR in human LNCaP cells assessed as degradation of AR preincubated with epoxomicin for 3 hrs followed by compound addition and measured after 18 hrs by Nano-Glo HiBiT assay; type: cell-based
LNCaP = assay: Cytotoxicity against human LNCaP cells harbouring HiBit tagged AR assessed as reduction in cell viability measured after 16 hrs by cell titer glo assay; type: functional, cell-based
[3] = target: T2, von Hippel-Lindau disease tumor suppressor (Homo sapiens, UniProt P40337); assay: Inhibition of N-terminal 6his tagged human VHL (1 to 213 residues) expressed in HEK293 cells using NanoBRET NanoGlo substrate by NanoBRET assay; type: cell-based
[4] = target: T2, von Hippel-Lindau disease tumor suppressor; assay: Inhibition of VHL in HEK293T cells assessed as target engagement incubated for 2 hrs by Streptavidin-pull down blotting assay; type: cell-based; conditions: dose 1-100 µM
[5] = target: T3, von Hippel-Lindau disease tumor suppressor/Bromodomain-containing protein 4 (Homo sapiens, UniProt O60885+P40337); assay: PROTAC activity at HiBit tagged BRD4/VHL E3 ligase in human HEK293 cells assessed as degradation of BRD4 preincubated with MLN4924 for 3 hrs followed by compound addition and measured after 18 hrs by Nano-Glo HiBiT assay; type: cell-based
HEK293 = assay: Cytotoxicity against human HEK293 cells harbouring HiBit tagged BRD4 assessed as reduction in cell viability measured after 18 hrs by cell titer glo assay; type: toxicity, cell-based; conditions: hek293, 18 h
[6] = target: T3, von Hippel-Lindau disease tumor suppressor/Bromodomain-containing protein 4; assay: PROTAC activity at HiBit tagged BRD4/VHL E3 ligase in human HEK293 cells assessed as degradation of BRD4 incubated for 18 hrs by Nano-Glo HiBiT assay; type: cell-based
[7] = target: T3, von Hippel-Lindau disease tumor suppressor/Bromodomain-containing protein 4; assay: PROTAC activity at HiBit tagged BRD4/VHL E3 ligase in human HEK293 cells assessed as degradation of BRD4 preincubated with epoxomicin for 3 hrs followed by compound addition and measured after 18 hrs by Nano-Glo HiBiT assay; type: cell-based

Row | SMILES | Activity [1] | Activity [2] | Activity (LNCaP) | also measured
1 | Cc1cc([C@H](C(=O)N2C[C@H](S(=O)(=O)F)C[C@H]2C(=O)N[C@@H](CC(=O)N2CCC(C#Cc3ccc(C(=O)N[C@H]4C(C)(C)[C@H](Oc5ccc(C#N)c(C(F)(F)F)c5)C4(C)C)cc3)CC2)c2ccc(-c3scnc3C)cc2)C(C)C)on1 | inactive | inactive | inactive | –
2 | CC(=O)N[C@H](C(=O)N1C[C@H](S(=O)(=O)F)C[C@H]1C(=O)NCc1ccc(-c2scnc2C)cc1)C(C)(C)C | – | – | – | IC50 [3]: > 100 µM
3 | Cc1cc([C@H](C(=O)N2C[C@H](S(=O)(=O)F)C[C@H]2C(=O)N[C@@H](CC(=O)NCCOCCOCCOCCNC(=O)CCCC[C@H]2SC[C@@H]3NC(=O)N[C@@H]32)c2ccc(-c3scnc3C)cc2)C(C)C)on1 | – | – | – | inhibition [4]: Dose-Dependent Effect
4 | COCC(COC)n1c(-c2cc(C)c(=O)n(C)c2)nc2cc(C3CCN(C(=O)COCCOCCOCCNC(=O)C[C@H](NC(=O)[C@@H]4C[C@@H](S(=O)(=O)F)CN4C(=O)[C@@H](c4cc(C)no4)C(C)C)c4ccc(-c5scnc5C)cc4)CC3)ccc21 | – | – | – | Activity [5]: inactive; Activity (HEK293): Non-Toxic; EC50 [6]: 17.2 µM; Activity [7]: inactive
5 | Cc1cc([C@H](C(=O)N2C[C@H](S(=O)(=O)F)C[C@H]2C(=O)N[C@@H](CC(=O)N2CCC(C#Cc3ccc(C(=O)N[C@H]4C(C)(C)[C@H](Oc5ccc(C#N)c(Cl)c5)C4(C)C)cc3)CC2)c2ccc(-c3scnc3C)cc2)C(C)C)on1 | inactive | inactive | inactive | –

— ChEMBL document CHEMBL5620436, “Structure-Guided Design and Optimization of Covalent VHL-Targeted Sulfonyl Fluoride PROTACs” (J Med Chem, 2024)
